# Measured values reported in patent US20060110472A1, “Use of allicin as insect repellent and insecticide in agricultural crops” (priority 2002, published 2006).
# Legend:
# [1] = test system: hatched larvae of fruit fly; assay: Lethality of hatched larvae on egg-laying plates with allicin; type: in vivo, Drosophila Melanogaster; settings: allicin stock 1-2 mg/ml added to egg-laying plates, about 200 eggs per plate
# Description: In an additional experiment, lethality of 80-90% of the hatched larvae produced in the second phase of the fly life cycle was caused by addition of allicin (stock 1-2 mg/ml) to egg-laying plates containing about 200 eggs per plate (not shown).
# [2] = test system: Persimmon trees (Oriental persimmon of the type "Fuyu"); assay: Damage to leaves of persimmon trees after spraying with allicin; type: in vivo; settings: water solution 0.1-0.2 g/l, 6 sprayings over 12 weeks
# Description: (§1) Persimmon trees (Oriental persimmon of the type “Fuyu”, 2.5-3 meters tall) in the Hasharon region, Israel, were sprayed with a water solution of allicin (0.1-0.2 g/l, 0.01-0.02% or 0.5-1 mM) every second week, during a 12-week period, for a total of 6 sessions. Spraying with allicin was started 2-3 weeks after persimmon fruit setting, when the fruits reached 1-2 cm in diameter. The spraying was performed in such a way as to wet the leaves and the fruits completely. No other insecticides or other treatments were used in parallel or at any point of the experiment. FIG. 2 is a photograph showing persimmon fruits from trees treated with allicin (left) and from untreated trees (right).
# [3] = test system: Fruit flies, Drosophila Melanogaster; assay: Egg laying of fruit flies on plates containing allicin (repellent activity); type: in vivo
# Description: Fruit flies, Drosophila Melanogaster, were grown in a plastic container and allowed to lay eggs in laying bottles (6×4 cm) containing allicin (100 μl) in various concentrations (0-12 mM). Allicin was introduced to the egg-laying sites on a ring of Whatman (3 mm) paper placed at the periphery of the egg laying plate which was placed at the bottom of the bottle. A yeast paste (fly food) was applied in the middle of the plate. Female fruit flies (N=100) were introduced into the laying bottle and were allowed to lay eggs for 16 hours. At the end of the 16 hours, the number of eggs was counted in each plate. The total number of eggs laid by the flies was 1440. The repellent effect of allicin on the fruit fly was determined by measuring the number of laid eggs during the continuous exposure of the flies to the various concentrations of allicin. The results are shown in FIG. 1a as a percentage of laid eggs in the presence of each concentration of allicin in comparison with the number of eggs laid by flies in the absence of allicin (first column, left—100%). […] At the end of the 8 hours, the number of eggs was counted in each plate. […] The repellent effect of allicin on the fruit fly was determined by measuring the number of laid eggs in allicin-free plates for 8 hours after the 16-hour exposure of the flies to the various concentrations of allicin. […]
# [4] = test system: fruit flies that attack the persimmon trees; assay: Spraying of persimmon trees with allicin, repellent effect on fruit flies; type: in vivo, fruit fly; settings: trees sprayed with water solution 0.1-0.2 g/l (0.5-1 mM) every second week, 12 weeks, 6 sessions, FIG. 2
# Description: as §1
# [5] = test system: ants; assay: Repellent effect of allicin on ants; type: in vivo
# Description: Treatment of the locus of an ant colony with a water solution of allicin (1 mg/ml) prevented the ants from reentering the place for at least 3 days.
smiles,measurement,setting,value
"C=CCS[S+]([O-])CC=C (stereo not shown) [allicin, thio-2-propene-1-sulfinic acid S-allyl ester]",lethality of hatched larvae,[1],80-90%
same,damage to leaves after spraying,[2],no damage
same,"repellent activity, inhibition of egg laying by the flies (% of eggs laid vs no allicin)","[3]; 0-12 mM allicin (100 μl), 16 hours continuous exposure, FIG. 1a",dose-dependent
same,inhibition of capability of the flies to lay eggs on allicin-free plates after exposure,"[3]; 8 hours on allicin-free plates after 16 hours exposure to 0-12 mM allicin, FIG. 1b",significant inhibition effect
same,"repellent effect on fruit flies, appearance of persimmon fruits",[4],repellent effect on fruit flies
same,crossing of a treated line in the floor by ants,"[5]; water solution of allicin 1 mg/ml on a line in the floor, even after the solution dried off",prevented the crossing of the line by ants
same,time ants were prevented from reentering the treated locus of the colony,[5]; water solution of allicin 1 mg/ml on locus of an ant colony,at least 3 days
